# Assay results published in patent publication US20240226211A9, “SEAWEED EXTRACTS, ISOLATED COMPOUNDS, AND METHODS OF TREATMENT” (University of Florida Research Foundation, Incorporated, priority 2017, published 2024).
# “Also recorded” adds a separate entry of the source.
# What was measured:
# Staphylococcus aureus = test: Preliminary antibacterial testing; type: cell-based
# Nqo1 [1] = test: Nqo1 transcript levels in RAW264.7 macrophage cells; type: cell-based, mouse; conditions: 10 μM Compound 1, IFN-γ
# Description: (§1) The RNeasy Mini Kit (Qiagen) was used to collect total RNA from cells, while for mouse tissue, TRIzol reagent (Invitrogen) was used. In each case, total RNAs (2 μg) were reverse-transcribed into cDNAs, which were used as templates for TaqMan gene expression assay (Applied Biosystems) and detected using the 7300 Real-Time PCR System (Applied Biosystems). Each qPCR sample was tested in triplicate as a 25 μL total reaction volume (12.5 μL of Taqman 2× universal master mix, 1.25 μL of a 20× TaqMan gene expression assay probe, 1 μL of the above cDNA, and 10.25 μL of RNase-free sterile water). The qPCR method was designed as following: 50° C. for 2 min, 95° C. for 10 min, and 40 cycles of 95° C. for 15 s and 60° C. for 1 min. Endogenous controls used included GAPDH for IMR-32 cells and β-actin to normalize for RAW264.7 cells and mouse tissues.
# (§2) RAW264.7 cells were seeded in 6-well plates (8×10^5 cells/well) and incubated at 37° C. overnight.
# Nqo1 [2] = test: Nqo1 transcript levels in mouse organs after oral gavage; type: in vivo; conditions: mice, particularly digestive tract
# Description: as §1
# The experiments were approved by the Institutional Animal Care & Use Committee at the University of Florida. Groups of 5-10 wild type male mice (C57BL/6J) were used for each treatment type. The mice were maintained under approved standard conditions. […] The tissues were harvested immediately, frozen on dry ice, and kept at −80° C. until analyzed.
# A low dose and a high dose of cymopol (1) or the NP extract were administered to 4-week-old male mice via oral gavage.
# Cox2 = Cox2 transcript levels in RAW264.7 macrophage cells; type: cell-based, mouse; conditions: 10 μM Compound 1, IFN-γ
# Description: as §1, §2
# [3] = test system: ARE-luciferase reporter (human NQO1-ARE) in IMR-32 cells; test: ARE-luc reporter assay in IMR-32 cells; type: cell-based; conditions: IMR-32 cell line
# Text: The ARE-luciferase reporter construct (ARE-luc) contains the core sequence of human NQO1-ARE1. The mock plasmid (pcDNA3-mRFP) was purchased from Addgene (plasmid 13032). The following plasmids were reported by Zhang et a/.2003 [Zhang, D. D., and Hannink, M. (2003) Distinct cysteine residues in Keap1 are required for Keap1-dependent ubiquitination of Nrf2 and for stabilization of Nrf2 by chemopreventive agents and oxidative stress. Mol. Cell. Biol. 23, 8137-8151]. The Keap1-CBD plasmid carries the entire open reading frame (ORF) of human Keap1 fused to the chitin binding domain (CBD) of the Bacillus circulans chitinase A1 gene upstream of the Keap1 stop codon. Oligonucleotide-directed mutagenesis was used to generate the Keap1-C151S-CBD and Keap1-C288S-CBD plasmids. The HA-Cul3 plasmid was constructed by fusing an N-terminal hemagglutinin (HA) tag with a cDNA sequence coding for amino acids 1-380 of human Cul3 gene. The Gal4-Neh2 expression vector contains the codons for the first 97 amino acids (Neh2 domain) of human Nrf2 fused to the ORF of the Gal4 DNA-binding domain
# An ARE-luciferase reporter plasmid and CMV-GFP plasmid (to monitor transfection efficiency) were co-transfected into a human androgen-sensitive prostate cancer cell line, LNCaP (6×10^4 cells/well), and a human neuroblastoma cell line, IMR-32 (3×10^4 cells/well), using Fugene® HD (Roche Diagnostics) in 96-well format. […] J Biol Chem. 2002; 277:388-394; Lee J M, Hanson J M, Chu W A, Johnson J A. Phosphatidylinositol 3-kinase, not extracellular signal-regulated kinase, regulates activation of the antioxidant-responsive element in IMR-32 human neuroblastoma cells. […] After 24 hours of incubation, cells were treated with extracts from Cymopolia barbata, a negative control (DMSO, 1%, v/v), and a positive control ([…] sulforaphane, SF, and tert-butylhydroquinone, tBHQ, respectively.) 24 hours post-treatment, luciferase activity was detected using BriteLite detection reagent (PerkinElmer). […]
# [4] = test system: ARE-driven and NFκB driven genes; test: Gene transcription in wildtype zebrafish embryos; type: in vivo
# [5] = test system: NO production in MEF cells; test: NO assay in MEF cells; type: cell-based, murine; conditions: stimulated with IFN-γ and TNF-α
# Description: RAW264.7 cells (2×10^4 cells/well), wild-type (8×10^3 cells/well), Nrf2−/−(7×10^3 cells/well), and Keap1−/−(5×10^3 cells/well) MEF were seeded into 96-well format. Cells were pretreated for 1 h with a solvent control (DMSO, 1%, v/v) or serial dilutions of isolated compounds or extracts before addition of LPS (1 μg/mL) or IFN-γ (10 ng/mL). […] In each case, 50 μL of the media was combined with 50 μL Griess Reagent (Promega). Absorbance was measured at 540 nm and compared with a calibration curve generated using the provided […] standard.
# Nrf2 = test: Nuclear translocation of NRF2 in IMR-32 cells; type: cell-based, human
# Description: IMR-32 cells were seeded in 6-well format at 2×10^6 cells/well and incubated at 37° C. overnight. The cells were treated with a solvent control (DMSO, 1%, v/v) or serial dilutions of isolated compounds or extracts for the indicated periods of time. The cytosolic and nuclear extracts were separated and prepared using a commercial kit, NE-PER Nuclear and Cytoplasmic Extraction Reagents (Thermo Scientific). Briefly, cells were gently washed once with 200 μL at DPBS before being resuspended in 1 mL DPBS, transferred to a pre-chilled tube, and pelleted at 500×g for 3 min at 4° C. The supernatant was removed and cells were resuspended in ice-cold CER I containing 1% cOmplete, EDTA-free Protease Inhibitor Cocktail (v/v, Roche Diagnostics) by vigorous vortexing. After addition of ice-cold buffer CER II, the samples were vortexed vigorously for 5 s and incubated on ice for 1 min twice before being pelleted at 16,000×g for 5 min at 4° C. The supernatant was transferred to a fresh tube and used as cytosolic stock. The pellet was washed twice by adding 75 μL ice-cold DPBS, flicking, centrifuging, and removing the supernatant before resuspension in ice-cold buffer NER supplemented with 1% cOmplete, EDTA-free Protease Inhibitor Cocktail (v/v). […] Subsequently, the cellular and nuclear extracts were analyzed by immunoblot.
# [6] = test system: large intestine transcriptome; test: RNAseq of mouse large intestine; type: in vivo
# Description: Briefly, 1st strand cDNA is primed by a modified N6 primer (the SMART N6 CDS primer), then base-pairs with these additional nucleotides, creating an extended template. The reverse transcriptase then switches templates and continues transcribing to the end of the oligonucleotide, resulting single-stranded cDNA contains sequences that are complementary to the SMARTer oligonucleotide. The SMARTer anchor sequence and the N6 sequence serve as universal priming sites for DNA amplification by PCR for 10 cycles. […] Libraries were quantitated by Bioanalyzer and qPCR (Kapa Biosystems, catalog number: KK4824). Finally, the libraries were pooled equal molar concentration and sequenced by Illumina 2X75 NextSeq 500.
# In preparation for sequencing, barcoded libraries were sized on the bioanalyzer, quantitated by QUBIT and qPCR (Kapa Biosystems, catalog number: KK4824). Individual samples were pooled equimolarly at 4 nM. […] For RNA seq, 50-100 million reads provided sufficient depth for transcriptome analysis.
# The web-based analysis tool, IPA, was used to further investigate the effect of the cymopols on the large intestine.
# [7] = test system: ARE-luciferase reporter (human NQO1-ARE) in LNCaP cells; test: ARE-luc reporter assay in LNCaP cells; type: cell-based; conditions: LNCaP cell line
# Text: The ARE-luciferase reporter construct (ARE-luc) contains the core sequence of human NQO1-ARE1. The mock plasmid (pcDNA3-mRFP) was purchased from Addgene (plasmid 13032). The following plasmids were reported by Zhang et a/.2003 [Zhang, D. D., and Hannink, M. (2003) Distinct cysteine residues in Keap1 are required for Keap1-dependent ubiquitination of Nrf2 and for stabilization of Nrf2 by chemopreventive agents and oxidative stress. Mol. Cell. Biol. 23, 8137-8151]. The Keap1-CBD plasmid carries the entire open reading frame (ORF) of human Keap1 fused to the chitin binding domain (CBD) of the Bacillus circulans chitinase A1 gene upstream of the Keap1 stop codon. […]
# An ARE-luciferase reporter plasmid and CMV-GFP plasmid (to monitor transfection efficiency) were co-transfected into a human androgen-sensitive prostate cancer cell line, LNCaP (6×10^4 cells/well), and a human neuroblastoma cell line, IMR-32 (3×10^4 cells/well), using Fugene® HD (Roche Diagnostics) in 96-well format. […] After 24 hours of incubation, cells were treated with extracts from Cymopolia barbata, a negative control (DMSO, 1%, v/v), and a positive control ([…] sulforaphane, SF, and tert-butylhydroquinone, tBHQ, respectively.) 24 hours post-treatment, luciferase activity was detected using BriteLite detection reagent (PerkinElmer). […]
compound,measurement,setting,value
"CC(C)=CCC/C(C)=C/Cc1cc(O)c(Br)cc1O [Compound 1, (E)-2-bromo-5-(3,7-dimethylocta-2,6-dien-1-yl)benzene-1,4-diol]",antibacterial activity,Staphylococcus aureus,inhibited
same,increase of Nqo1 transcript levels,Nqo1 [1],> 96%
same,transcript levels of Nqo1 in various organs,Nqo1 [2],elevated transcript levels of Nqo1
same,reduction of Cox2 transcript levels,Cox2,90%
same,activation of ARE-luc,[3],most active
same,ARE-driven gene transcription,[4],increase in ARE-driven gene transcription
same,select NFκB driven genes,[4],decrease in select NFκB driven genes
same,NO production in wild-type MEFs,[5],minimized NO production; also recorded: restore basal level of NO
same,anti-inflammatory effects in Nrf2−/− and Keap1−/− MEFs,[5],did not demonstrate appreciable anti-inflammatory effects
same,time after which increased nuclear NRF2 levels were seen,Nrf2; IMR-32 cells,18 h
same,nuclear translocation of NRF2,"Nrf2; IMR-32 cells, 0, 1, 6 or 18 hours",induced nuclear translocation of NRF2
same,PI3K/Akt/mTOR pathway,"[6]; large intestine RNAseq, IPA",greatly affected
same,Wnt/β-catenin or Sonic Hedgehog signalling,"[6]; large intestine RNAseq, IPA",no notable difference
same,transcript levels of TNFα,"[6]; large intestine, low dose",down-regulated
same,activation of ARE-luc,[7],most active
